In test [1] the test system is SpNanC. Kind of test: Kinetics studies of SpNanC. Type of test: biochemical, Streptococcus pneumoniae. Conditions: substance as substrate of SpNanC.
Test [2] deals with SpNanC. Kind of test: Substrate specificity of SpNanC with pNP-tagged α2–3-linked sialosides. Conditions: sialoside as substrate of SpNanC. Type of test: biochemical, Streptococcus pneumoniae.
Another test deals with CpNanI. Type of test: biochemical, Clostridium perfringens. Conditions: 0.1 mM inhibitor.
A further test concerns the target AuSialidase (Paenarthrobacter ureafaciens, UniProt Q5W7Q2). As to the kind of experiment: Sialidase inhibition, Neu5Acα2–3GalβpNP as substrate. Conditions: for inhibitory activity against AuSialidase (in words): 0.1 mM inhibitor. Type of test: biochemical, Arthrobacter ureafaciens.
Another test has as its target VcSialidase (Vibrio cholerae serotype O1, UniProt P0C6E9). Kind of test: biochemical.
The subject of test [3] is SpNanC. Kind of test: Sialidase inhibition, Neu5Acα2–3GalβpNP as substrate. Type of test: biochemical, Streptococcus pneumoniae. To be noted: 0.1 mM inhibitor.
The next test addresses PmST1 (Pasteurella multocida, UniProt Q15KI8). Type of test: biochemical. To be noted: 0.1 mM inhibitor.
In a further test the target is CpNanH (Clostridium perfringens, UniProt P10481). Type of test: biochemical.
CpNanH, sequence (P10481 whole entry, looked up): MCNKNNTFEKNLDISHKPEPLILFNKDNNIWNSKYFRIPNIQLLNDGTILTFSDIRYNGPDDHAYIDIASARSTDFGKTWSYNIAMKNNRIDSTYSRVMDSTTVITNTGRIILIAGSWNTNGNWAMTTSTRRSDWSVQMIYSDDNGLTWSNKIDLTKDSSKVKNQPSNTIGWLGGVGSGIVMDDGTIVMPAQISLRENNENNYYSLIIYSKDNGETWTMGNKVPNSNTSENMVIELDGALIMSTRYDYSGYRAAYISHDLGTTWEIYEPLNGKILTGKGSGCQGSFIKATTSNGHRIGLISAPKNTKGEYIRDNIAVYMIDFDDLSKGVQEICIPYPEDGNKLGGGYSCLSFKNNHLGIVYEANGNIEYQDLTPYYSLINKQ
Another test addresses BiNanH2 (Bifidobacterium longum subsp. infantis, UniProt A0ACD7UU12). Kind of test: Sialidase inhibition, Neu5Acα2–3GalβpNP as substrate. To be noted: for IC50: read-out: IC50 against BiNanH2, Neu5Acα2–3GalβpNP as substrate; for inhibitory activity against BiNanH2 (in words): 0.1 mM inhibitor. Type of test: biochemical.
The target of a further test is SpNanB (Streptococcus pneumoniae serotype 4, UniProt Q54727). Described as above. Conditions: 0.1 mM inhibitor. Type of test: biochemical.
SpNanB, sequence (Q54727 30-697): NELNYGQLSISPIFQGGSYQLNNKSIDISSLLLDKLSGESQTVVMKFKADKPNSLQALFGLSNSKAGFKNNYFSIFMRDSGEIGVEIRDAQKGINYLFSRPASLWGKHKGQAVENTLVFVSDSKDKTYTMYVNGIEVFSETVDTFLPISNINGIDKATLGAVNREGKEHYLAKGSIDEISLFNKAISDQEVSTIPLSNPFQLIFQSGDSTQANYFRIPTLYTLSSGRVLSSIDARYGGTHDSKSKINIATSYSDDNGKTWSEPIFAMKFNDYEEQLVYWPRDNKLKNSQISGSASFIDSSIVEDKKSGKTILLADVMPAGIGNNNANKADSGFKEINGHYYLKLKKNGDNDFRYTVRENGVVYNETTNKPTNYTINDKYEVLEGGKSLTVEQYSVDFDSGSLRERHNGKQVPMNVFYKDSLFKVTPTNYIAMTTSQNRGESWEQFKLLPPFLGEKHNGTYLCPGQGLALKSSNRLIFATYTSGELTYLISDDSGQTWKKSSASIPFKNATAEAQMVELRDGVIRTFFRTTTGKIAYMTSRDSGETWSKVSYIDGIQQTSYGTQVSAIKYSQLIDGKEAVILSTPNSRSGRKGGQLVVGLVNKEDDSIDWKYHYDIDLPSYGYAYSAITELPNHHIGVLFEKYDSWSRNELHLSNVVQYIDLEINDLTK
In the next test the target is SpNanA (Streptococcus pneumoniae, UniProt P62575). Kind of test: biochemical. To be noted: for IC50: read-out: IC50 against SpNanA, Neu5Acα2–3GalβpNP as substrate; for inhibitory activity against SpNanA (in words): 0.1 mM inhibitor.
SpNanA, sequence (P62575 54-1035): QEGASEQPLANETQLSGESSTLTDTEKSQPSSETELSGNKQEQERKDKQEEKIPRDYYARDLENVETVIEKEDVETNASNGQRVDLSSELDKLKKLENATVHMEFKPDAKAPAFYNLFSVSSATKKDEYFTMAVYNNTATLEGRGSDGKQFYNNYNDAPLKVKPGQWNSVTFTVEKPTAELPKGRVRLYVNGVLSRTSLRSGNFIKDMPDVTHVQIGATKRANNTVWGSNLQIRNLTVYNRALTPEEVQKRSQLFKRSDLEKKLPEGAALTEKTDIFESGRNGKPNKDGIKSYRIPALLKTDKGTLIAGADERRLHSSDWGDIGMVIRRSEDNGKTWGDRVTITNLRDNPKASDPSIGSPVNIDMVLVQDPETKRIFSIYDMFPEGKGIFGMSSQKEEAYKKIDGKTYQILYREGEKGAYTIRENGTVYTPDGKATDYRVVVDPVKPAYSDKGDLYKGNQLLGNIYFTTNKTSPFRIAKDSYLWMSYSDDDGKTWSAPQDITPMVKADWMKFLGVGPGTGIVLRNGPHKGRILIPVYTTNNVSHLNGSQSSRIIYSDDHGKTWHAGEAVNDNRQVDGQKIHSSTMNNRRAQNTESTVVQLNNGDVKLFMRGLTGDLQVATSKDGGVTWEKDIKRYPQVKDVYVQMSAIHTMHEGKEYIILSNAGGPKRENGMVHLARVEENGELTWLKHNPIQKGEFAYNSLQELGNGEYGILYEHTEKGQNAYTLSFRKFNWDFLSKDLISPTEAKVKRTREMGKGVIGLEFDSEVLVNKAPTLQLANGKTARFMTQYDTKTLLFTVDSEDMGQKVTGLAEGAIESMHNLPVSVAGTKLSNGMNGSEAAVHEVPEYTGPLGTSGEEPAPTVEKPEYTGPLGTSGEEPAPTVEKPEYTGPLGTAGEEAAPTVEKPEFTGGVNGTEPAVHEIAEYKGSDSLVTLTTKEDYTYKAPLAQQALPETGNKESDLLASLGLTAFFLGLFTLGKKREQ
Test [4] has as its target human cytosolic sialidase hNEU2 (Homo sapiens, UniProt Q9Y3R4). Kind of test: Sialidase inhibition, Neu5Acα2–3GalβpNP as substrate. To be noted: 0.1 mM inhibitor. Type of test: biochemical.
The subject of the next test is human NEU1. To be noted: cited from earlier work.
A further test deals with viral sialidases. To be noted: cited from earlier work.
The subject of the next test is recombinant SpNanC. To be noted: substance as substrate of previously reported recombinant SpNanC; cited from earlier work.

A value given as a limit tells only on which side of the number the result lay.

VcSialidase, sequence (P0C6E9 25-781): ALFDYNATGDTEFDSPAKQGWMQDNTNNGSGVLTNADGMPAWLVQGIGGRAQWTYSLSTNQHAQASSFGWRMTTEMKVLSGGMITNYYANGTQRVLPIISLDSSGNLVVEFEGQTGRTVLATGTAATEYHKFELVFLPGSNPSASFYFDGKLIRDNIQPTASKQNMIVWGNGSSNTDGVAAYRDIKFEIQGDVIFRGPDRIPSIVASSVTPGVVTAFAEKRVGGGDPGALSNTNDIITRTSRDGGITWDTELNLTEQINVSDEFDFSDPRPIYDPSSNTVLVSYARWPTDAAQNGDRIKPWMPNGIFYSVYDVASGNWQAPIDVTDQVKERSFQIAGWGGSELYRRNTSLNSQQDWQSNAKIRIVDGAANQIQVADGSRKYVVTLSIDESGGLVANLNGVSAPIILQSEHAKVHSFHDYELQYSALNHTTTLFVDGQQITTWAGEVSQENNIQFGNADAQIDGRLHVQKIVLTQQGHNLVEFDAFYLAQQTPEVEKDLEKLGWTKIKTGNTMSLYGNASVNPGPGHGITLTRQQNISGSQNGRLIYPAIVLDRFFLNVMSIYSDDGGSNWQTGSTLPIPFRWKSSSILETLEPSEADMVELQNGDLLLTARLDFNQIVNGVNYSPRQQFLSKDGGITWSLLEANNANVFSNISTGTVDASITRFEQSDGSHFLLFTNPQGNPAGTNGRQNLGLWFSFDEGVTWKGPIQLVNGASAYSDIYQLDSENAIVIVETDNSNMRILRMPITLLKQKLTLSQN
human cytosolic sialidase hNEU2, sequence (Q9Y3R4 whole entry): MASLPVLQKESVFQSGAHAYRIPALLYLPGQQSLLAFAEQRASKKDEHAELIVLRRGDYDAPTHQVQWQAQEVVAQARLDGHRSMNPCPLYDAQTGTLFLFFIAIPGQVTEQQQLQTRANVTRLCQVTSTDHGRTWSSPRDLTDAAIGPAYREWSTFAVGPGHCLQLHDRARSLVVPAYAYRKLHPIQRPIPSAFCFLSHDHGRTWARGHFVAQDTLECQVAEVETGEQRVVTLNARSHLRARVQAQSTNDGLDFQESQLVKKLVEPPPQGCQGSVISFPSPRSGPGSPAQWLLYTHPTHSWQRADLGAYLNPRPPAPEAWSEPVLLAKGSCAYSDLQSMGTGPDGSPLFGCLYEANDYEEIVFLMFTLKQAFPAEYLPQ

With `CC(=O)N[C@H]1[C@H]([C@H](O)[C@H](O)CO)OC(O[C@H]2[C@@H](O)[C@@H](CO)O[C@@H](Oc3ccc([N+](=O)[O-])cc3)[C@@H]2O)(C(=O)O)C[C@@H]1O` (some centres unmarked) [Neu5Acα2–3GalβpNP], in the test with SpNanC [1], the Km (as a rule, the concentration of substrate that gives half-maximal velocity) was found to be 2700 ± 500 µM and the catalytic constant (kcat) – broadly, the maximal rate divided by the concentration of active sites – was 406.8 ± 39.0 s⁻¹. In the test on SpNanC [2], this compound returned a Percentage conversion of 85.1 ± 2.4%.
Take `CC(=O)N[C@H]1[C@H]([C@H](O)[C@H](O)CO)OC(C(=O)O)=C[C@@H]1O` [compound 6, 2,3-dehydro-2-deoxy-N-acetylneuraminic acid]: the “inhibition against CpNanI” value in the test with CpNanI is “more than 50%”. Further, the inhibition at 100 µM at AuSialidase (read-out: inhibition against AuSialidase), on VcSialidase (read-out: inhibition against VcSialidase), at BiNanH2 (read-out: inhibition against BiNanH2) and on SpNanA (read-out: inhibition against SpNanA) was above 50% in each case. Further, in the test on SpNanC [3], the “inhibitory activity against SpNanC (in words)” value is “not effective inhibitors”. Besides, the “inhibitory activity against PmST1 (in words)” value against PmST1 is on record as “not effective inhibitors”. In addition, the “inhibitory activity against CpNanH (in words)” value against CpNanH is reported as “not effective inhibitors”. Further, on SpNanB, the “inhibitory activity against SpNanB (in words)” value is given as “not effective inhibitors”.
`CC(=O)NC[C@@H](O)[C@@H](O)C1OC(C(=O)O)=CC(O)[C@H]1NC(C)=O` (some centres unmarked) [compound 9, Neu5Ac9NAc2en]: the “inhibitory activity against AuSialidase (in words)” value on AuSialidase was “lowered the inhibitory activity”. Moreover, the “inhibitory activity against VcSialidase (in words)” value on VcSialidase is listed as “lowered the inhibitory activity”. Moreover, the “inhibitory activity against SpNanC (in words)” value in the test on SpNanC [3] is listed as “not effective inhibitors”. Moreover, in test [4], the “inhibitory activity against hNEU2 (in words)” value is reported as “lowered the inhibitory activity”. The “inhibitory activity against PmST1 (in words)” value against PmST1 is given as “not effective inhibitors”. In addition, the “inhibitory activity against CpNanH (in words)” value on CpNanH is listed as “not effective inhibitors”. Further, the results for the concentration for half-maximal inhibition (IC50) on BiNanH2 and on SpNanA were 33 ± 1 µM and 11 ± 0.2 µM, respectively. Further, the “inhibitory activity against SpNanB (in words)” value against SpNanB was “not effective inhibitors”.
Take `CC(=O)N[C@@H]1C(O)C=C(C(=O)O)OC1C[C@H](O)CO` (some centres unmarked) [compound 10, Neu5Ac7deoxy2en]: the “inhibitory activity against CpNanI (in words)” value in the test on CpNanI is on record as “selective inhibitory activity”. Also, the “inhibitory activity against AuSialidase (in words)” value at AuSialidase was “selective inhibitory activity”. The 50% inhibitory concentration (IC50) – broadly, the midpoint of a concentration-inhibition curve – on AuSialidase (read-out: IC50 against AuSialidase, Neu5Acα2–3GalβpNP as substrate) worked out at 17 ± 1 µM. For the same compound, at VcSialidase, the “inhibitory activity against VcSialidase (in words)” value is on record as “not an effective inhibitor”. Moreover, in the test with SpNanC [3], the “inhibitory activity against SpNanC (in words)” value is listed as “not effective inhibitors”. Besides, the “inhibitory activity against hNEU2 (in words)” value in [4] was “but not hNEU2”. On PmST1, the “inhibitory activity against PmST1 (in words)” value was “not effective inhibitors”. Further, at CpNanH, the “inhibitory activity against CpNanH (in words)” value was “not effective inhibitors”. For the same compound, on BiNanH2, the “inhibitory activity against BiNanH2 (in words)” value is “not an effective inhibitor”. The “inhibitory activity against SpNanB (in words)” value on SpNanB is given as “not effective inhibitors”. Besides, at SpNanA, the “inhibitory activity against SpNanA (in words)” value is “selective inhibitory activity” and the IC50 came out at 10.7 ± 0.4 µM.
Regarding `CCCCC(=O)NC[C@@H](O)[C@@H](O)[C@@H]1OC(C(=O)O)=C[C@H](O)[C@H]1NC(C)=O` [compound 12, Neu5Ac9NPent2en], the “inhibitory activity against AuSialidase (in words)” value at AuSialidase is reported as “lowered the inhibitory activity”. For the same compound, the “inhibitory activity against VcSialidase (in words)” value on VcSialidase is given as “lowered the inhibitory activity”. In addition, the “inhibitory activity against SpNanC (in words)” value in the test on SpNanC [3] is on record as “not effective inhibitors”. Further, in test [4], the “inhibitory activity against hNEU2 (in words)” value was “lowered the inhibitory activity”. The “inhibitory activity against PmST1 (in words)” value against PmST1 was “not effective inhibitors”. In addition, at CpNanH, the “inhibitory activity against CpNanH (in words)” value is on record as “not effective inhibitors”. Further, the 50% inhibitory concentration (IC50) at BiNanH2 was 34 ± 2 µM; at SpNanA it was 10.5 ± 0.5 µM. The “selectivity against human NEU1” value with human NEU1 is “improved selectivity”. The “inhibitory activity against SpNanB (in words)” value on SpNanB was “not effective inhibitors”.
In the case of `CC(=O)N[C@H]1[C@H]([C@H](O)[C@H](O)CNC(=O)C2CC2)OC(C(=O)O)=C[C@@H]1O` [compound 13, Neu5Ac9NCyclopro2en], at AuSialidase, the “inhibitory activity against AuSialidase (in words)” value is reported as “lowered the inhibitory activity”. Besides, the “inhibitory activity against VcSialidase (in words)” value at VcSialidase is listed as “lowered the inhibitory activity”. Besides, the “inhibitory activity against SpNanC (in words)” value with SpNanC [3] is recorded as “not effective inhibitors”. Moreover, the “inhibitory activity against hNEU2 (in words)” value in test [4] is on record as “lowered the inhibitory activity”. For the same compound, on PmST1, the “inhibitory activity against PmST1 (in words)” value is “not effective inhibitors”. In addition, the “inhibitory activity against CpNanH (in words)” value against CpNanH is “not effective inhibitors”. Besides, the half-maximal inhibitory concentration (IC50) at BiNanH2 stood at 29 ± 2 µM; at SpNanA, 6.8 ± 0.2 µM. Also, the “inhibitory activity against SpNanB (in words)” value on SpNanB is “not effective inhibitors”. In the test with viral sialidases, the “selectivity against viral sialidases” value was “higher selectivity”.
On to `O=C(Cc1ccccc1)N[C@H]1[C@H]([C@H](O)[C@H](O)CO)OC(C(=O)O)=C[C@@H]1O` [compound 15, Neu5PhAc2en], for which the “inhibitory activity against CpNanI (in words)” value in the test on CpNanI is reported as “not any bacterial sialidases tested”. The “inhibitory activity against AuSialidase (in words)” value against AuSialidase was “not any bacterial sialidases tested”. The “inhibitory activity against VcSialidase (in words)” value at VcSialidase is “not any bacterial sialidases tested”. Besides, the “inhibitory activity against SpNanC (in words)” value in the test with SpNanC [3] is “not effective inhibitors”. For the same compound, the “inhibitory activity against hNEU2 (in words)” value in test [4] is recorded as “retained inhibitory activity”. Besides, on PmST1, the “inhibitory activity against PmST1 (in words)” value is listed as “not effective inhibitors”. The “inhibitory activity against CpNanH (in words)” value on CpNanH is recorded as “not effective inhibitors”. In addition, the “inhibitory activity against BiNanH2 (in words)” value against BiNanH2 is listed as “not any bacterial sialidases tested”. Besides, the “inhibitory activity against SpNanB (in words)” value against SpNanB is given as “not effective inhibitors”. For the same compound, the “inhibitory activity against SpNanA (in words)” value against SpNanA was “not any bacterial sialidases tested”.
For the compound `CC(=O)N[C@H]1[C@H]([C@H](O)[C@H](O)CO)O[C@@](O[C@H]2[C@@H](O)[C@@H](CO)O[C@@H](O[C@H]3[C@H](O)[C@@H](O)C(O)O[C@@H]3CO)[C@@H]2O)(C(=O)O)C[C@@H]1O` (stereo partly drawn) [α2–3-sialyllactose], in the test on recombinant SpNanC, the Michaelis-Menten constant (Km) is 1080 ± 350 µM and the kcat is 0.313 ± 0.052 s⁻¹.

These data come from publication PMC5920526 (ACS catalysis, 2017).
